Target: HCoV-229E 3CL protease (Human coronavirus 229E, UniProt P0C6U2)
Test: FRET based protease assay, HCoV-229E 3CL
Type: biochemical
Details: 229E IC50, 6 nM H229E-CoV Chis-3CLpro, 6 μM peptide 1 substrate, 25° C., 1.5 hrs, pH 7.5

Sequence of HCoV-229E 3CL protease (P0C6U2 2966-3267): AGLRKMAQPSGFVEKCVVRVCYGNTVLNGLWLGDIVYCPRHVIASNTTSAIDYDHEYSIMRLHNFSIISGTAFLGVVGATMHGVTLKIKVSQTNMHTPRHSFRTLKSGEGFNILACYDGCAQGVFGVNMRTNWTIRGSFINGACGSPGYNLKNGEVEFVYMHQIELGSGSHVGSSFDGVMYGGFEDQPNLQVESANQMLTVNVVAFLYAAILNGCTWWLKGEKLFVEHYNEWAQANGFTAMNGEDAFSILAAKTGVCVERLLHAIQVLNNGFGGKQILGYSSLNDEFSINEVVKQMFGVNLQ

SMILES | IC50
CC1(C)[C@@H]2[C@H]3C(=O)N[C@H](C#N)C[C@@H]4C(=O)NC[C@@H]4CCCC[C@H](NC(=O)c4cccc(Cl)c4Cl)C(=O)N3C[C@@H]21 [Example 134] | < 0.1 µM
CC(C)(C)OC(=O)N[C@H]1CCC[C@H]2CCNC(=O)[C@H]2C[C@@H](C#N)NC(=O)[C@@H]2[C@H]3CCC[C@H]3CN2C1=O [Example 100] | 0.1 to 1 µM
CC1(C)[C@@H]2[C@H]3C(=O)N[C@H](C#N)C[C@@H]4C(=O)NC[C@@H]4CCCC[C@H](NC(=O)C45CCC(C4)C5)C(=O)N3C[C@@H]21 [Example 148] | < 0.1 µM
CC(C)C[C@@H]1NC(=O)[C@@H](C2CCCC2)CCC[C@H]2CNC(=O)[C@@H]2C[C@@H](C#N)NC1=O [Example 28] | 1 to 20 µM
CC(C)C[C@@H]1NC(=O)[C@@H](C2CCCC2)CCC[C@@H]2CNC(=O)[C@@H]2C[C@@H](C=O)NC1=O [Example 14] | 0.1 to 1 µM
CC1(C)[C@@H]2[C@H]3C(=O)N[C@H](C#N)C[C@@H]4C(=O)NC[C@@H]4CCCC[C@H](NS(=O)(=O)c4ccccc4)C(=O)N3C[C@@H]21 [Example 154] | < 0.1 µM
CC(C)(C)CC(=O)N[C@H]1CCCC[C@H]2CCNC(=O)[C@H]2C[C@@H](C#N)NC(=O)[C@@H]2[C@H]3CCC[C@H]3CN2C1=O [Example 95] | < 0.1 µM
CC(C)C[C@@H]1NC(=O)CCCC[C@H]2CNC(=O)[C@@H]2C[C@@H](C=O)NC1=O [Example 4] | < 0.1 µM
CC(C)(C)OC(=O)N[C@H]1CCCC[C@H]2CNC(=O)[C@H]2C[C@@H](C#N)NC(=O)[C@@H]2CCCCCN2C1=O [Example 143] | 0.1 to 1 µM
N#C[C@@H]1C[C@@H]2C(=O)NC[C@@H]2CCCC[C@H](Nc2nccc(C(F)(F)F)n2)C(=O)N2C[C@@H]3CCC[C@@H]3[C@H]2C(=O)N1 [Example 165] | 0.1 to 1 µM
CC1(C)[C@@H]2[C@H]3C(=O)N[C@H](C#N)C[C@@H]4C(=O)NC[C@@H]4/C=C/CC[C@H](NC(=O)C4CC(F)(F)C4)C(=O)N3C[C@@H]21 [Example 83] | < 0.1 µM
CC(C)(C)C(=O)N[C@H]1CCC[C@H]2CCNC(=O)[C@@H]2C[C@@H](C#N)NC(=O)[C@@H]2[C@@H]3[C@H](CN2C1=O)C3(C)C [Example 66] | 0.1 to 1 µM
N#C[C@@H]1C[C@@H]2C(=O)NC[C@@H]2CCCC[C@H](NC(=O)C(F)(F)F)C(=O)N2C[C@@H]3CCC[C@@H]3[C@H]2C(=O)N1 [Example 88] | < 0.1 µM
CC(C)C[C@@H]1NC(=O)[C@@H](CC2CCCC2)CCC[C@H]2CNC(=O)[C@@H]2C[C@@H](C=O)NC1=O [Example 18] | 0.1 to 1 µM
CC1(C)[C@@H]2[C@H]3C(=O)N[C@H](C#N)C[C@@H]4C(=O)NC[C@@H]4CCCC[C@H](NC(=O)C4(C(F)(F)F)CC4)C(=O)N3C[C@@H]21 [Example 117] | < 0.1 µM
CC(C)(C)C[C@@H]1NC(=O)[C@@H](NC(=O)OC(C)(C)C)CCCC[C@H]2CNC(=O)[C@H]2C[C@@H](C#N)NC1=O [Example 60] | < 0.1 µM
N#C[C@@H]1C[C@@H]2C(=O)NC[C@@H]2CCCC[C@H](NC(=O)C2(C(F)(F)F)CC2)C(=O)N2C[C@@H]3CCC[C@@H]3[C@H]2C(=O)N1 [Example 150] | < 0.1 µM
CC(C)C[C@@H]1NC(=O)[C@@H](Cc2ccccc2)CCCCC[C@H]2CNC(=O)[C@H]2C[C@@H](C#N)NC1=O [Example 50] | 1 to 20 µM
CC(C)(C)OC(=O)N[C@H]1CCCC[C@H]2CNC(=O)[C@H]2C[C@@H](C#N)NC(=O)[C@@H]2[C@H]3CC[C@H](CC3)N2C1=O [Example 111] | 0.1 to 1 µM
Cc1nc(C(=O)N[C@H]2CCCC[C@H]3CNC(=O)[C@H]3C[C@@H](C#N)NC(=O)[C@@H]3[C@@H]4[C@H](CN3C2=O)C4(C)C)co1 [Example 115] | < 0.1 µM
CC(C)(C)OC(=O)N[C@H]1COCCC[C@H]2CNC(=O)[C@H]2C[C@@H](C#N)NC(=O)[C@@H]2[C@@H]3[C@H](CN2C1=O)C3(C)C [Example 102] | < 0.1 µM

SMILES | IC50
CC1(C)[C@@H]2[C@H]3C(=O)N[C@H](C#N)C[C@@H]4C(=O)NC[C@@H]4CCCC[C@H](NC(=O)OC4CCCC4)C(=O)N3C[C@@H]21 [Example 75] | < 0.1 µM
CC1(C)[C@@H]2[C@H]3C(=O)N[C@H](C#N)C[C@@H]4C(=O)NC[C@@H]4CCCC[C@H](NC(=O)C45CC(C(F)(F)F)(C4)C5)C(=O)N3C[C@@H]21 [Example 119] | < 0.1 µM
CC1(C)[C@@H]2[C@H]3C(=O)N[C@H](C#N)C[C@@H]4C(=O)NC[C@@H]4CCCC[C@H](NC(=O)C4CCOCC4)C(=O)N3C[C@@H]21 [Example 85] | < 0.1 µM
CC(C)(C)C[C@@H]1NC(=O)[C@@H](NC(=O)C(C)(C)C)CCCC[C@H]2CNC(=O)[C@H]2C[C@@H](C#N)NC1=O [Example 53] | < 0.1 µM
CC(C)(C)C(=O)N[C@H]1C/C=C/[C@H]2CNC(=O)[C@H]2C[C@@H](C#N)NC(=O)[C@@H]2[C@@H]3[C@H](CN2C1=O)C3(C)C [Example 63] | < 0.1 µM
CC1(C)[C@@H]2[C@H]3C(=O)N[C@H](C#N)C[C@@H]4C(=O)NC[C@@H]4CCCC[C@H](NC(=O)c4cc(Cl)ccc4Cl)C(=O)N3C[C@@H]21 [Example 133] | < 0.1 µM
CN1C(=O)[C@@H](NC(=O)C(C)(C)C)CCCC[C@H]2CNC(=O)[C@H]2C[C@@H](C#N)NC(=O)[C@@H]1CC(C)(C)C [Example 78] | 0.1 to 1 µM
CC1(C)[C@@H]2[C@H]3C(=O)N[C@H](C#N)C[C@@H]4C(=O)NC[C@@H]4CCCC[C@H](NC(=O)C4CCC(F)(F)CC4)C(=O)N3C[C@@H]21 [Example 68] | < 0.1 µM
CC1(C)[C@@H]2[C@H]3C(=O)N[C@H](C#N)C[C@@H]4C(=O)NC[C@@H]4CCCC[C@H](NS(=O)(=O)C(F)(F)F)C(=O)N3C[C@@H]21 [Example 158] | < 0.1 µM
CC(C)C[C@@H]1NC(=O)CCCCCC[C@H]2CNC(=O)[C@@H]2C[C@@H](C=O)NC1=O [Example 48] | < 0.1 µM
CC1(C)[C@@H]2[C@H]3C(=O)N[C@H](C#N)C[C@@H]4C(=O)NCC[C@@H]4CCCC[C@H](NC(=O)c4ccc(F)cc4F)C(=O)N3C[C@@H]21 [Example 129] | < 0.1 µM
CC(C)(C)OC(=O)N[C@H]1CCCC[C@H]2CNC(=O)[C@H]2C[C@@H](C#N)NC(=O)[C@@H]2[C@@H]3[C@H](CN2C1=O)C3(C)C [Example 72] | < 0.1 µM
CC1(C)C[C@H]2C(=O)N[C@H](C#N)C[C@@H]3C(=O)NC[C@@H]3CCCC[C@H](NC(=O)OC(C)(C)C)C(=O)N2C1 [Example 130] | < 0.1 µM
CC(C)C[C@@H]1NC(=O)[C@@H](Cc2ccccc2)CCC[C@@H]2CNC(=O)[C@@H]2C[C@@H](C=O)NC1=O [Example 9] | 0.1 to 1 µM
CC(C)C[C@@H]1NC(=O)CCCCC[C@H]2CNC(=O)[C@H]2C[C@@H](C=O)NC1=O [Example 30] | < 0.1 µM
CC1(C)[C@@H]2[C@H]3C(=O)N[C@H](C#N)C[C@@H]4C(=O)NC[C@@H]4CCCC[C@H](NC(=O)OC4(C(F)(F)F)CCC4)C(=O)N3C[C@@H]21 [Example 152] | < 0.1 µM
CC(C)C[C@@H]1NC(=O)[C@@H](Cc2cccc(C(F)(F)F)c2)CCCC[C@H]2CNC(=O)[C@H]2C[C@@H](C#N)NC1=O [Example 40] | 1 to 20 µM
CC(C)C[C@@H]1NC(=O)CCCCCC[C@@H]2CNC(=O)[C@H]2C[C@@H](C=O)NC1=O [Example 47] | 0.1 to 1 µM
CC(C)C[C@@H]1NC(=O)[C@H](Cc2ccccc2)CCC[C@H]2CNC(=O)[C@@H]2C[C@@H](C=O)NC1=O [Example 21] | < 0.1 µM
CC(C)C[C@@H]1NC(=O)[C@@H](Cc2ccccc2)CCC[C@H]2CNC(=O)[C@@H]2C[C@@H](C=O)NC1=O [Example 10] | 1 to 20 µM
